From US9920075B2, “Triazolopyridine and triazolopyrimidine inhibitors of myeloperoxidase” (BRISTOL-MYERS SQUIBB COMPANY, priority 2014, dated 2018) come the findings set out here.

“And” between values parts separate entries of the source, which are not always exact repeats. Equal entries are not always repeated.

One assay concerns the target T1, myeloperoxidase (MPO) (Homo sapiens, UniProt P05164).
T1 sequence (P05164 49-745): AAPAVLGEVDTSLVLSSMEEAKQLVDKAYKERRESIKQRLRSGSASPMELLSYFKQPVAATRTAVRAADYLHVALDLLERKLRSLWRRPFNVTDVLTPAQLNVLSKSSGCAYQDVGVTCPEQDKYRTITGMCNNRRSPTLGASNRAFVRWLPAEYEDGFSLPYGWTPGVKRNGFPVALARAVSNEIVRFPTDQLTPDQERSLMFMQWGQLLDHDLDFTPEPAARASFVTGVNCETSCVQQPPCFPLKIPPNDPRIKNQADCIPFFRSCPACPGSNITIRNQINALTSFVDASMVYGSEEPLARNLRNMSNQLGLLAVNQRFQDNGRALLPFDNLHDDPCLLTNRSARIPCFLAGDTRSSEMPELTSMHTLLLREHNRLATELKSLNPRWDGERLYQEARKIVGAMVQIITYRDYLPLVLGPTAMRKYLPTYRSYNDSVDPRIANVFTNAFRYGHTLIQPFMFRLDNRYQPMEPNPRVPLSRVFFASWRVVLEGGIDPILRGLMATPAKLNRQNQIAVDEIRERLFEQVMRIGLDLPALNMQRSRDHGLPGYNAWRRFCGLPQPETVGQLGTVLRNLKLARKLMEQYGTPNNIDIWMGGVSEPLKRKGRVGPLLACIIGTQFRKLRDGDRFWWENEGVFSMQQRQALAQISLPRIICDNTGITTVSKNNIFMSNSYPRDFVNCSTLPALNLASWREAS
Kind of assay: MPO peroxidation assay (Amplex Red assay). It is filed as biochemical. To be noted: MPO peroxidation (Amplex Red), ranges given; read-out: MPO peroxidation assay IC50 values (binned). The procedure:
MPO Peroxidation Assay (Amplex Red Assay)
MPO peroxidation activity was measured in 100 mM KPi (pH 7.4) by utilizing the non-fluorescent reagent Amplex Red (Invitrogen Cat. #A12222) which can be oxidized to the highly fluorescent resorufin. Amplex Red is oxidized by the peroxidase action of MPO to resorufin. […] Enzyme and compound were preincubated for ten minutes at room temperature.
After the ten minute preincubation, 25 μL of an Amplex Red mixture containing 200 μM Amplex Red and 10 mM H2O2 was added to the plate.
IC50 values were calculated by determining the slope of the linear portion of the kinetic trace (180-540 secs), and using that calculated slope to determine % inhibition occurring at each concentration of inhibitor using the following equation:
[formula] where A=minimal Y value (activity level of inhibited sample), B=maximal Y value (activity level of uninhibited sample), C=Log IC50, D=Hill Slope, x=concentration of inhibitor. MPO Chlorination Assay (APF Assay)
A word on the IC50: it is the concentration at which inhibition is half-maximal. `Nc1cc(OCc2nc(-c3ccccc3)no2)c2nn[nH]c2n1` [Example 24, 7-((3-Phenyl-1,2,4-oxadiazol-5-yl)methoxy)-3H-[1,2,3]triazolo[4,5-b]pyridin-5-amine]: the IC50 is 60 to 150 nM. With `Nc1cc(OCc2cnc(-c3ccccc3)s2)c2nn[nH]c2n1` [Example 26, 7-((2-Phenylthiazol-5-yl)methoxy)-3H-[1,2,3]triazolo[4,5-b]pyridin-5-amine], the half-inhibitory concentration (IC50) fell in the range of 150 to 1000 nM. For the compound `Cc1oc(-c2cc(F)cc(F)c2)nc1COc1cc(N)nc2[nH]nnc12` [Example 27, 7-((2-(3,5-Difluorophenyl)-5-methyloxazol-4-yl)methoxy)-3H-[1,2,3]triazolo[4,5-b]pyridin-5-amine], the IC50 was in the range of 150 to 1000 nM.

Consider `Nc1cc(OCc2nnc3cccc(Cl)n23)c2nn[nH]c2n1` [Example 29, 7-((5-Chloro-[1,2,4]triazolo[4,3-a]pyridin-3-yl)methoxy)-3H-[1,2,3]triazolo [4,5-b]pyridin-5-amine], for which the half-inhibitory concentration (IC50) was in the range of 60 to 150 nM. The same measure, in the same setting: the value for `Nc1cc(OCc2cnn(-c3ccccn3)c2)c2nn[nH]c2n1` [Example 30, 7-((1-(Pyridin-2-yl)-1H-pyrazol-4-yl)methoxy)-3H-[1,2,3]triazolo[4,5-b]pyridin-5-amine] was 60 to 150 nM.

Turning to `Cc1nc(-c2ccc(Cl)cc2)ncc1COc1cc(N)nc2[nH]nnc12` [Example 31, 7-((2-(4-Chlorophenyl)-4-methylpyrimidin-5-yl)methoxy)-3H-[1,2,3]triazolo[4,5-b]pyridin-5-amine], the 50% inhibitory concentration (IC50) was in the range of 150 to 1000 nM.

On to `Cn1cnc2cccc(COc3cc(N)nc4[nH]nnc34)c21` [Example 36, 7-((1-Methyl-1H-benzo[d]imidazol-7-yl)methoxy)-3H-[1,2,3]triazolo[4,5-b]pyridin-5-amine], for which the IC50 was in the range of 150 to 1000 nM. In the case of `Nc1cc(OCc2cccc3c2ncn3Cc2ccccc2)c2nn[nH]c2n1` [Example 37, 7-((1-Benzyl-1H-benzo[d]imidazol-4-yl)methoxy)-3H-[1,2,3]triazolo[4,5-b]pyridin-5-amine], the IC50 lay in the range of 150 to 1000 nM. The same measure, in the same setting: the value for `Nc1cc(OCc2cccc3c2nnn3Cc2ccccc2)c2nn[nH]c2n1` [Example 38, 7-((1-Benzyl-1H-benzo[d][1,2,3]triazol-4-yl)methoxy)-3H-[1,2,3]triazolo [4,5-b]pyridin-5-amine] was 60 to 150 nM and 150 to 1000 nM; that for `Cc1oc(-c2ccc(Cl)cc2Cl)nc1COc1cc(N)nc2[nH]nnc12` [Example 39, 7-((2-(2,4-Dichlorophenyl)-5-methyloxazol-4-yl)methoxy)-3H-[1,2,3]triazolo[4,5-b]pyridin-5-amine] was not above 60 nM. Turning to `Nc1cc(OCc2cn3nc(Cl)ccc3n2)c2nn[nH]c2n1` [Example 40, 7-((6-Chloroimidazo[1,2-b]pyridazin-2-yl)methoxy)-3H-[1,2,3]triazolo[4,5-b]pyridin-5-amine], the half-inhibitory concentration (IC50) was 150 to 1000 nM.

In the case of `Nc1cc(OCc2csc(-c3ccccc3)n2)c2nn[nH]c2n1` [Example 42, 7-((2-Phenylthiazol-4-yl)methoxy)-3H-[1,2,3]triazolo[4,5-b]pyridin-5-amine], the IC50 was 60 to 150 nM.

For `N#Cc1ccccc1-c1cc(COc2cc(N)nc3[nH]nnc23)on1` [Example 45, 2-(5-((5-Amino-3H-[1,2,3]triazolo[4,5-b]pyridin-7-yloxy)methyl)isoxazol-3-yl)benzonitrile], the IC50 was not above 60 nM.

As for `Cc1nc(-c2ccc(Cl)cc2)sc1COc1cc(N)nc2[nH]nnc12` [Example 49, 7-((2-(4-Chlorophenyl)-4-methylthiazol-5-yl)methoxy)-3H-[1,2,3]triazolo [4,5-b]pyridin-5-amine], the IC50 is not above 60 nM.

The assay is the same for the next values; noted with them: MPO peroxidation assay IC50 values (binned), MPO peroxidation (Amplex Red), ranges given.
Consider `Nc1cc(OCc2ncc(-c3ccccc3)o2)c2nn[nH]c2n1` [Example 25, 7-((5-Phenyloxazol-2-yl)methoxy)-3H-[1,2,3]triazolo[4,5-b]pyridin-5-amine], for which the half-inhibitory concentration (IC50) fell in the range of 60 to 150 nM.
